{"source": "patent US10344060B2", "about": "(priority 2013, dated 2019)", "molecular_target": "hNav1.7 (Homo sapiens, UniProt Q15858)", "sequence (Q15858 whole entry)": "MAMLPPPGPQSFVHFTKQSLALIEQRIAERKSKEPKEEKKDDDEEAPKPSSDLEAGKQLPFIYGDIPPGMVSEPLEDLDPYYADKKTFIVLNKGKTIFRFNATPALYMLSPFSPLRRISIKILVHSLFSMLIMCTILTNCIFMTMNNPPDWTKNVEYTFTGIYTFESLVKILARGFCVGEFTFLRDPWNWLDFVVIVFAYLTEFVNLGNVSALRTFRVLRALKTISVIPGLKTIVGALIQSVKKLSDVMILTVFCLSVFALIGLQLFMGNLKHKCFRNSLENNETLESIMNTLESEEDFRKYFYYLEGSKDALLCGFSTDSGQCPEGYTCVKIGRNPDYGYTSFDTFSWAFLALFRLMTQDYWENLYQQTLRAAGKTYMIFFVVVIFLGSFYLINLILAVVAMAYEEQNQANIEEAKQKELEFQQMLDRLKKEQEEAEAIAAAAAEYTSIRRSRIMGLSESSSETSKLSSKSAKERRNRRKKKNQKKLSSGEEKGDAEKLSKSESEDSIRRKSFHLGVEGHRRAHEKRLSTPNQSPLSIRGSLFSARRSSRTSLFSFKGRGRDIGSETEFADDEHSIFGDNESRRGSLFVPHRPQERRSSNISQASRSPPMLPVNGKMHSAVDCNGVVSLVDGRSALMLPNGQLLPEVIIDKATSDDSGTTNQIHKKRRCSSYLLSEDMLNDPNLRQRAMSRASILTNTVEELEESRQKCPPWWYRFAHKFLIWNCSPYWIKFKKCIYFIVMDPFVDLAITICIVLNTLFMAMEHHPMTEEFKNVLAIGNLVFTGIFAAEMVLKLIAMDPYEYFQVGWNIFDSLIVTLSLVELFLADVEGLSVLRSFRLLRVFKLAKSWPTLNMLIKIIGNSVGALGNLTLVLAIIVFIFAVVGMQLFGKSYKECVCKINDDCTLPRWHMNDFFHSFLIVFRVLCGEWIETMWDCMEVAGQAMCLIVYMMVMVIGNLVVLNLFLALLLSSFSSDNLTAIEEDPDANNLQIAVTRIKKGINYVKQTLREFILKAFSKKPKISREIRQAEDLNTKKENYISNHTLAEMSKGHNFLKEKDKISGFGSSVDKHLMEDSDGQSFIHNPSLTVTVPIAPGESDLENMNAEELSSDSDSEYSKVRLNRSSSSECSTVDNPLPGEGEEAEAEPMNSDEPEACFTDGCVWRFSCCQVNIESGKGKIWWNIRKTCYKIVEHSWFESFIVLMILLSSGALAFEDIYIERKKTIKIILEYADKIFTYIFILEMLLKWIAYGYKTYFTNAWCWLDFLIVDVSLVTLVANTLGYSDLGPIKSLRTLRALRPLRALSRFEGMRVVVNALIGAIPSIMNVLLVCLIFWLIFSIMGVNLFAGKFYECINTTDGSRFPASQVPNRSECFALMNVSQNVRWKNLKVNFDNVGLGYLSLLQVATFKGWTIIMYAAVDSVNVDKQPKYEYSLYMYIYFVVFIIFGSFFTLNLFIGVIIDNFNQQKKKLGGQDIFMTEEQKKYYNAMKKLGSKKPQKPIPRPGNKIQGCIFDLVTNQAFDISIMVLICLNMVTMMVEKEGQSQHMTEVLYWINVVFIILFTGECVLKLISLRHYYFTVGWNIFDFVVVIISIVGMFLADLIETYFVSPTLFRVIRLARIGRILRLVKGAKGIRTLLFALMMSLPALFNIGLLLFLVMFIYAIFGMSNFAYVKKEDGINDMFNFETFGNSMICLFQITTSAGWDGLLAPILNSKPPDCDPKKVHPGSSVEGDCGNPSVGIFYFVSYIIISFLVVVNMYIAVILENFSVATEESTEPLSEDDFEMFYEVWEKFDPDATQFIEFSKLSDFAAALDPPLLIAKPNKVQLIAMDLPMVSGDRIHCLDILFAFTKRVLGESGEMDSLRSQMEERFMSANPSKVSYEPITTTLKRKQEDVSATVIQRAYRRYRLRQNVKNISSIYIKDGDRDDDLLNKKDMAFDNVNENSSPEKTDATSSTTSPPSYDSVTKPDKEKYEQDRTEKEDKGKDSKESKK", "assay": "cell-based", "format": "cell-based", "conditions": "for IC50: Table 12, PatchXpress, tonic block, read-out: PX hNav1.7 Tonic IC50", "key": {"[1]": {"conditions": "ratio of PX tonic IC50 values, Table 11"}}, "data": [{"smiles": "C#CC[C@H](N)C(=O)N[C@@H](Cc1ccc(O)cc1)C(=O)N[C@H]1CSSC[C@@H]2NC(=O)[C@@H]3CSSC[C@@H](C(=O)N[C@@H](CCCNC(=N)N)C(=O)N[C@@H](CCCCN)C(=O)N[C@@H](CCC(=O)O)C(=O)N[C@H](C(N)=O)[C@@H](C)CC)NC(=O)[C@H](Cc4c[nH]c5ccccc45)NC(=O)[C@H](CC(C)C)NC(=O)[C@H](CCCCN)NC(=O)[C@H](CSSC[C@H](NC(=O)[C@H]([C@@H](C)O)NC(=O)[C@H](Cc4ccc5ccccc5c4)NC(=O)[C@H](CCCC)NC(=O)[C@H](Cc4c[nH]c5ccccc45)NC(=O)[C@H](CCCCN)NC(=O)[C@H](CCC(N)=O)NC1=O)C(=O)N[C@@H](CC(=O)O)C(=O)N[C@@H](CO)C(=O)N[C@@H](CCCCN)C(=O)N[C@@H](CCCNC(=N)N)C(=O)N[C@@H](C)C(=O)N3)NC(=O)[C@H](CCCNC(=N)N)NC(=O)[C@H](CC(C)C)NC(=O)CNC(=O)[C@H](CCC(=O)O)NC2=O", "note": "[compound 847]", "values": [{"measurement": "IC50", "result": 470, "unit": "nM"}]}, {"smiles": "CCCC[C@@H]1NC(=O)[C@H](Cc2c[nH]c3ccccc23)NC(=O)[C@H](CCCCN)NC(=O)[C@H](CCC(N)=O)NC(=O)[C@@H](NC(=O)[C@H](Cc2ccc(O)cc2)NC(=O)[C@@H](N)CC#N)CSSC[C@@H]2NC(=O)[C@@H]3CSSC[C@@H](C(=O)N[C@@H](CCCNC(=N)N)C(=O)N[C@@H](CCCCN)C(=O)N[C@@H](CCC(=O)O)C(=O)N[C@@H](Cc4c[nH]c5ccccc45)C(N)=O)NC(=O)[C@H](Cc4c[nH]c5ccccc45)NC(=O)[C@H](CC(C)C)NC(=O)[C@H](CCCCN)NC(=O)[C@H](CSSC[C@H](NC(=O)[C@H]([C@@H](C)O)NC(=O)[C@H](Cc4c[nH]c5ccccc45)NC1=O)C(=O)N[C@@H](CC(=O)O)C(=O)N[C@@H](CO)C(=O)N[C@@H](CCCCN)C(=O)N[C@@H](CCCNC(=N)N)C(=O)N[C@@H](C)C(=O)N3)NC(=O)[C@H](CCCNC(=N)N)NC(=O)[C@H](CC(C)C)NC(=O)CNC(=O)[C@H](CCCCNC(=O)CCOCCOCCOCCOCCOCCOCCOCCOCCOCCOCCOCCOCCN)NC2=O", "note": "[compound 459]", "values": [{"measurement": "Nav1.4/Nav1.7", "setting": "[1]", "result": 27}]}, {"smiles": "C#CC[C@@H]1NC(=O)[C@@H]2CSSC[C@H](NC(=O)[C@H](CCC(=O)O)NC(=O)[C@@H](N)CC#N)C(=O)N[C@@H](CCC(N)=O)C(=O)N[C@@H](CCCCN)C(=O)N[C@@H](Cc3c[nH]c4ccccc34)C(=O)N[C@@H](CCCC)C(=O)N[C@@H](Cc3c[nH]c4ccccc34)C(=O)N[C@@H]([C@@H](C)O)C(=O)N[C@H]3CSSC[C@H](NC(=O)[C@H](CCCNC(=N)N)NC(=O)[C@H](CC(C)C)NC(=O)CNC1=O)C(=O)N[C@@H](CCCCN)C(=O)N[C@@H](CC(C)C)C(=O)N[C@@H](Cc1c[nH]c4ccccc14)C(=O)N[C@H](C(=O)N[C@@H](CCCNC(=N)N)C(=O)N[C@@H](CCCCN)C(=O)N[C@@H](CCC(=O)O)C(=O)N[C@H](C(N)=O)[C@@H](C)CC)CSSC[C@H](NC(=O)[C@H](CCC(=O)O)NC(=O)[C@H](CCCNC(=N)N)NC(=O)[C@H](CCC(=O)O)NC(=O)[C@H](CO)NC(=O)[C@H](CC(=O)O)NC3=O)C(=O)N2", "note": "[compound 756]", "values": [{"measurement": "IC50", "result": "> 1000", "unit": "nM"}]}, {"smiles": "C#CC[C@H](N)C(=O)N[C@@H](Cc1ccc(O)cc1)C(=O)N[C@H]1CSSC[C@@H]2NC(=O)[C@@H]3CSSC[C@@H](C(=O)N[C@@H](CCCNC(=N)N)C(=O)N[C@@H](CCC(=O)O)C(=O)N[C@@H](CCC(=O)O)C(=O)N[C@H](C(N)=O)[C@@H](C)CC)NC(=O)[C@H](Cc4c[nH]c5ccccc45)NC(=O)[C@H](CC(C)C)NC(=O)[C@H](CCCCN)NC(=O)[C@H](CSSC[C@H](NC(=O)[C@H]([C@@H](C)O)NC(=O)[C@H](Cc4c[nH]c5ccccc45)NC(=O)[C@H](CCCC)NC(=O)[C@H](Cc4c[nH]c5ccccc45)NC(=O)[C@H](CCCCN)NC(=O)[C@H](CCC(N)=O)NC1=O)C(=O)N[C@@H](CC(=O)O)C(=O)N[C@@H](CO)C(=O)N[C@@H](CCCCN)C(=O)N[C@@H](CCCNC(=N)N)C(=O)N[C@@H](C)C(=O)N3)NC(=O)[C@H](CCCNC(=N)N)NC(=O)[C@H](CC(C)C)NC(=O)CNC(=O)[C@H](CCC(=O)O)NC2=O", "note": "[compound 725]", "values": [{"measurement": "IC50", "result": "> 10000", "unit": "nM"}]}, {"smiles": "CCCC[C@H](NC(=O)[C@H](Cc1ccc(O)cc1)NC(=O)[C@H](CCCCN)NC(=O)[C@H](CCCNC(=N)N)NC(=O)[C@@H]1CSSC[C@@H]2NC(=O)[C@H](C)NC(=O)[C@H](CCCNC(=N)N)NC(=O)[C@H](CCCCN)NC(=O)[C@H](CO)NC(=O)[C@H](CC(=O)O)NC(=O)[C@@H]3CSSC[C@H](NC(=O)[C@H](CCC(=O)O)NC(=O)[C@H](CC(C)C)NC(=O)CNC(=O)[C@H](CCC(=O)O)NC(=O)[C@H](CSSC[C@H](NC(=O)[C@@H](N)Cc4ccc(O)cc4)C(=O)N[C@@H](CCC(N)=O)C(=O)N[C@@H](CCCCN)C(=O)N[C@@H](Cc4c[nH]c5ccccc45)C(=O)N[C@@H](CCSC)C(=O)N[C@@H](Cc4c[nH]c5ccccc45)C(=O)N[C@@H]([C@@H](C)O)C(=O)N3)NC2=O)C(=O)N[C@@H](CCCCN)C(=O)N[C@@H](CC(C)C)C(=O)N[C@@H](Cc2c[nH]c3ccccc23)C(=O)N1)C(N)=O", "note": "[compound 239]", "values": [{"measurement": "Nav1.4/Nav1.7", "setting": "[1]", "result": 127}, {"measurement": "Nav1.5/Nav1.7", "setting": "[1]", "result": ">1575"}]}, {"smiles": "CCCC[C@@H]1NC(=O)[C@H](Cc2c[nH]c3ccccc23)NC(=O)[C@H](CCCCN)NC(=O)[C@H](CCC(N)=O)NC(=O)[C@@H](NC(=O)[C@H](Cc2ccc(O)cc2)NC(=O)[C@@H](N)CC#N)CSSC[C@@H]2NC(=O)[C@@H]3CSSC[C@@H](C(=O)N[C@@H](CCCNC(=N)N)C(=O)N[C@@H](CCCCN)C(=O)N[C@@H](CCC(=O)O)C(=O)N[C@H](C(N)=O)[C@@H](C)CC)NC(=O)[C@H](Cc4c[nH]c5ccccc45)NC(=O)[C@H](CC(C)C)NC(=O)[C@H](CCCCN)NC(=O)[C@H](CSSC[C@H](NC(=O)[C@H]([C@@H](C)O)NC(=O)[C@H](Cc4c[nH]c5ccccc45)NC1=O)C(=O)N[C@@H](CC(=O)O)C(=O)N[C@@H](CO)C(=O)N[C@@H](CCCCNC(=O)CCOCCOCCOCCOCCOCCOCCOCCOCCOCCOCCOCCOCCN)C(=O)N[C@@H](CCCNC(=N)N)C(=O)N[C@@H](C)C(=O)N3)NC(=O)[C@H](CCCNC(=N)N)NC(=O)[C@H](CC(C)C)NC(=O)CNC(=O)[C@H](CCC(=O)O)NC2=O", "note": "[compound 566]", "values": [{"measurement": "Nav1.4/Nav1.7", "setting": "[1]", "result": 103}]}, {"smiles": "C#CC[C@H](N)C(=O)N[C@@H](Cc1ccc(O)cc1)C(=O)N[C@H]1CSSC[C@@H]2NC(=O)[C@@H]3CSSC[C@@H](C(=O)N[C@@H](CCCNC(=N)N)C(=O)N[C@@H](CCCCN)C(=O)N[C@@H](CCC(=O)O)C(=O)N[C@H](C(N)=O)[C@@H](C)CC)NC(=O)[C@H](Cc4ccccc4)NC(=O)[C@H](CC(C)C)NC(=O)[C@H](CCCCN)NC(=O)[C@H](CSSC[C@H](NC(=O)[C@H]([C@@H](C)O)NC(=O)[C@H](Cc4c[nH]c5ccccc45)NC(=O)[C@H](CCCC)NC(=O)[C@H](Cc4c[nH]c5ccccc45)NC(=O)[C@H](CCCCN)NC(=O)[C@H](CCC(N)=O)NC1=O)C(=O)N[C@@H](CC(=O)O)C(=O)N[C@@H](CO)C(=O)N[C@@H](CCCCN)C(=O)N[C@@H](CCCNC(=N)N)C(=O)N[C@@H](C)C(=O)N3)NC(=O)[C@H](CCCNC(=N)N)NC(=O)[C@H](CC(C)C)NC(=O)CNC(=O)[C@H](CCC(=O)O)NC2=O", "note": "[compound 853]", "values": [{"measurement": "IC50", "result": 15.3, "unit": "nM"}]}]}
